Data on three compounds can be found in PubChem BioAssay AID1259347.

Experiment [1] relates to HCT116 Ad-hTR-mut infected, survival, MTT 4 d. In words: survival after telomere uncapping, modulators, dose response, cell-based, HCT116, Ad-hTR-mut infection, MTT (AID 1259347).
Assay in experiment [2]: as above
The conditions noted are these: HCT116 Ad-hTR-mut infected, survival, MTT 4 d; measured here: second series; at 10 µM; stronger effect = higher value.

The source made the active and inactive calls.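 How the source made its calls: active means compounds raising absorbance, a cell survival measure, over 1.5-fold at the top dose, rising with dose; inactive means the rest.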

What is called EC50 is the concentration needed to bring the measured effect to its halfway point. As for `C/C(=C\C(=O)Nc1ccccc1C(=O)O)c1ccc2ccccc2c1`, the EC50 in experiment [1] is > 0.1 µM (inactive). In the case of `Cc1nc2cc(-c3ccc(Br)cc3)nn2c(C)c1CCC(=O)O`, the fold survival in experiment [2] was 1.44. Besides, the EC50 in experiment [1] is less than 10 µM. With `Cc1ccc(C(=O)Nc2ccc(S(=O)(=O)O)c3cc(S(=O)(=O)O)cc(S(=O)(=O)O)c23)cc1NC(=O)c1cccc(NC(=O)Nc2cccc(C(=O)Nc3cc(C(=O)Nc4ccc(S(=O)(=O)O)c5cc(S(=O)(=O)O)cc(S(=O)(=O)O)c45)ccc3C)c2)c1`, in experiment [2], the fold survival worked out at 2.65. Further, the EC50 in experiment [1] was less than 10 µM.
